Results as given in the NIST ThermoML archive (doi:10.1016/j.jct.2013.01.006).
± gives the expanded uncertainty stated by the source.

Conditions: Liquid, Vibrating tube method

C=C(F)C(F)(F)F [2,3,3,3-tetrafluoro-1-propene]
Conditions	mass density [kg/m3]
283.5 K, 3000 kPa	1155.63 ± 0.58
283.5 K, 5000 kPa	1165.27 ± 0.54
283.51 K, 1000 kPa	1145.11 ± 0.6
283.51 K, 10000 kPa	1186.43 ± 0.5
283.51 K, 15000 kPa	1204.63 ± 0.49
283.52 K, 20000 kPa	1220.62 ± 0.5
283.52 K, 25000 kPa	1235 ± 0.52
283.53 K, 30000 kPa	1248.1 ± 0.55
283.53 K, 40000 kPa	1271.31 ± 0.63
283.53 K, 50000 kPa	1291.52 ± 0.74
283.53 K, 60000 kPa	1309.52 ± 0.88
283.53 K, 69990 kPa	1325.92 ± 1.1
283.54 K, 79990 kPa	1340.69 ± 1.2
283.54 K, 89990 kPa	1354.31 ± 1.4
283.54 K, 99990 kPa	1367.01 ± 1.6
293.42 K, 100000 kPa	1352.4 ± 1.6
293.43 K, 1000 kPa	1111.44 ± 0.68
293.43 K, 3000 kPa	1123.79 ± 0.63
293.43 K, 5000 kPa	1134.97 ± 0.59
293.43 K, 80000 kPa	1324.88 ± 1.2
293.43 K, 89990 kPa	1339.25 ± 1.4
293.44 K, 10000 kPa	1159.05 ± 0.53
293.44 K, 15000 kPa	1179.37 ± 0.5
293.44 K, 20000 kPa	1196.95 ± 0.5
293.44 K, 70000 kPa	1309.56 ± 1.1
293.45 K, 25000 kPa	1212.64 ± 0.51
293.45 K, 30000 kPa	1226.8 ± 0.53
293.45 K, 40000 kPa	1251.77 ± 0.61
293.45 K, 50000 kPa	1273.28 ± 0.71
293.45 K, 60000 kPa	1292.28 ± 0.83
303.3 K, 1000 kPa	1077.2 ± 0.78
303.3 K, 3000 kPa	1092.22 ± 0.72
303.3 K, 5000 kPa	1105.38 ± 0.65
303.3 K, 10000 kPa	1133.08 ± 0.57
303.3 K, 20000 kPa	1175.21 ± 0.51
303.3 K, 25000 kPa	1192.3 ± 0.51
303.3 K, 30000 kPa	1207.61 ± 0.53
303.3 K, 40000 kPa	1234.24 ± 0.59
303.3 K, 50000 kPa	1257.07 ± 0.68
303.3 K, 60000 kPa	1277.12 ± 0.8
303.31 K, 15000 kPa	1155.81 ± 0.52
303.31 K, 69990 kPa	1295.36 ± 1
303.31 K, 80000 kPa	1311.51 ± 1.2
303.31 K, 90000 kPa	1326.38 ± 1.3
303.31 K, 99990 kPa	1340.07 ± 1.5
313.3 K, 3000 kPa	1054.12 ± 0.84
313.3 K, 5000 kPa	1070.05 ± 0.73
313.3 K, 10000 kPa	1102.25 ± 0.61
313.3 K, 15000 kPa	1127.81 ± 0.55
313.31 K, 20000 kPa	1149.23 ± 0.52
313.31 K, 25000 kPa	1167.84 ± 0.5
313.31 K, 30000 kPa	1184.38 ± 0.51
313.31 K, 79990 kPa	1294.04 ± 1.1
313.31 K, 100000 kPa	1323.74 ± 1.4
313.32 K, 40000 kPa	1212.87 ± 0.57
313.32 K, 50000 kPa	1237.08 ± 0.65
313.32 K, 60000 kPa	1258.24 ± 0.76
313.32 K, 70000 kPa	1277.17 ± 1
313.32 K, 90000 kPa	1309.49 ± 1.3
323.16 K, 30000 kPa	1163.21 ± 0.51
323.16 K, 80000 kPa	1279.1 ± 1.1
323.16 K, 90000 kPa	1295.16 ± 1.2
323.16 K, 100000 kPa	1309.92 ± 1.4
323.17 K, 3000 kPa	1014.55 ± 1
323.17 K, 5000 kPa	1034.38 ± 0.85
323.17 K, 10000 kPa	1072.33 ± 0.68
323.17 K, 15000 kPa	1101.29 ± 0.58
323.17 K, 20000 kPa	1125.01 ± 0.53
323.17 K, 25000 kPa	1145.33 ± 0.51
323.17 K, 40000 kPa	1193.69 ± 0.55
323.17 K, 50000 kPa	1219.3 ± 0.63
323.17 K, 60000 kPa	1241.51 ± 0.73
323.17 K, 69990 kPa	1261.48 ± 0.98
333.08 K, 3000 kPa	970.09 ± 1.4
333.08 K, 5000 kPa	995.64 ± 1
333.08 K, 10000 kPa	1041.18 ± 0.76
333.08 K, 15000 kPa	1074.07 ± 0.62
333.08 K, 20000 kPa	1100.37 ± 0.55
333.08 K, 25000 kPa	1122.55 ± 0.52
333.08 K, 30000 kPa	1141.81 ± 0.51
333.08 K, 40000 kPa	1174.38 ± 0.53
333.08 K, 50000 kPa	1201.52 ± 0.6
333.08 K, 60000 kPa	1224.88 ± 0.69
333.08 K, 70000 kPa	1245.82 ± 0.95
333.08 K, 80000 kPa	1264.16 ± 1
333.08 K, 90000 kPa	1280.84 ± 1.2
333.08 K, 99990 kPa	1296.14 ± 1.3
343.03 K, 25000 kPa	1099.43 ± 0.54
343.04 K, 30000 kPa	1120.26 ± 0.51
343.04 K, 40000 kPa	1155.06 ± 0.52
343.05 K, 50000 kPa	1183.7 ± 0.58
343.05 K, 60000 kPa	1208.19 ± 0.67
343.05 K, 70000 kPa	1230.04 ± 0.94
343.05 K, 80000 kPa	1249.14 ± 1
343.05 K, 90000 kPa	1266.4 ± 1.1
343.06 K, 15000 kPa	1045.88 ± 0.68
343.06 K, 20000 kPa	1075.15 ± 0.58
343.06 K, 100000 kPa	1282.22 ± 1.3
343.07 K, 3000 kPa	917.18 ± 2
343.07 K, 5000 kPa	952.33 ± 1.3
343.07 K, 10000 kPa	1008.02 ± 0.88
353.02 K, 3000 kPa	849.05 ± 3.2
353.02 K, 99990 kPa	1268.7 ± 1.2
353.03 K, 5000 kPa	902.77 ± 1.8
353.03 K, 10000 kPa	973.22 ± 1
353.03 K, 15000 kPa	1016.73 ± 0.75
353.03 K, 20000 kPa	1049.45 ± 0.62
353.03 K, 25000 kPa	1075.98 ± 0.55
353.03 K, 30000 kPa	1098.53 ± 0.51
353.03 K, 40000 kPa	1135.71 ± 0.52
353.03 K, 50000 kPa	1166.05 ± 0.56
353.03 K, 60000 kPa	1191.81 ± 0.63
353.03 K, 69990 kPa	1214.55 ± 0.91
353.03 K, 79990 kPa	1234.41 ± 0.98
353.03 K, 89990 kPa	1252.33 ± 1.1
362.96 K, 5000 kPa	843.74 ± 2.4
362.96 K, 10000 kPa	936.17 ± 1.3
362.96 K, 15000 kPa	986.89 ± 0.83
362.96 K, 20000 kPa	1023.49 ± 0.67
362.96 K, 25000 kPa	1052.55 ± 0.58
362.96 K, 30000 kPa	1076.97 ± 0.52
362.96 K, 40000 kPa	1116.69 ± 0.51
362.96 K, 50000 kPa	1148.71 ± 0.54
362.96 K, 60000 kPa	1175.67 ± 0.61
362.96 K, 70000 kPa	1199.47 ± 0.9
362.96 K, 80000 kPa	1220.08 ± 0.96
362.96 K, 89990 kPa	1238.55 ± 1
362.96 K, 100000 kPa	1255.48 ± 1.2
